From PubChem BioAssay (NCI)
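Method: 48-hour compound exposure of cells in 96-well plates, five concentrations, linear interpolation of endpoints. At the TGI there is no net growth.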

Tests used:
Experiment in all cases: DTP human tumour cell line panel, 48 h
SK-MEL-2 melanoma = tested on: SK-MEL-2 melanoma
OVCAR-4 ovarian = tested on: OVCAR-4 ovarian
XF 498 CNS = tested on: XF 498 CNS
IGROV1 ovarian = tested on: IGROV1 ovarian
NCI-H460 lung = tested on: NCI-H460 lung
KM12 colon = tested on: KM12 colon
SK-MEL-5 melanoma = tested on: SK-MEL-5 melanoma
M14 melanoma = tested on: M14 melanoma
EKVX NSCLC = tested on: EKVX NSCLC
CCRF-CEM leukemia = tested on: CCRF-CEM leukemia
SNB-78 CNS = tested on: SNB-78 CNS
SF-295 CNS = tested on: SF-295 CNS
LXFL 529 NSCLC = tested on: LXFL 529 NSCLC
SK-MEL-28 melanoma = tested on: SK-MEL-28 melanoma
HT29 colon = tested on: HT29 colon
786-0 renal = tested on: 786-0 renal
OVCAR-3 ovarian = tested on: OVCAR-3 ovarian
UACC-62 melanoma = tested on: UACC-62 melanoma
SNB-19 CNS = tested on: SNB-19 CNS
RPMI-8226 leukemia = tested on: RPMI-8226 leukemia
OVCAR-8 ovarian = tested on: OVCAR-8 ovarian
SNB-75 CNS = tested on: SNB-75 CNS
SF-268 CNS = tested on: SF-268 CNS
SW-620 colon = tested on: SW-620 colon
KM20L2 colon = tested on: KM20L2 colon
RXF 393 renal = tested on: RXF 393 renal
HCC-2998 colon = tested on: HCC-2998 colon
HOP-62 NSCLC = tested on: HOP-62 NSCLC
HCT-116 colon = tested on: HCT-116 colon
UO-31 renal = tested on: UO-31 renal
NCI-H226 lung = tested on: NCI-H226 lung
DMS 114 small cell lung = tested on: DMS 114 small cell lung
SF-539 CNS = tested on: SF-539 CNS
CAKI-1 renal = tested on: CAKI-1 renal
ACHN renal = tested on: ACHN renal
HCT-15 colon = tested on: HCT-15 colon
COLO 205 colon = tested on: COLO 205 colon
DLD-1 colon = tested on: DLD-1 colon
K-562 leukemia = tested on: K-562 leukemia
A549 NSCLC = tested on: A549 NSCLC
LOX IMVI melanoma = tested on: LOX IMVI melanoma
NCI-H23 lung = tested on: NCI-H23 lung
SK-OV-3 ovarian = tested on: SK-OV-3 ovarian
SN12C renal = tested on: SN12C renal
M19-MEL melanoma = tested on: M19-MEL melanoma
HOP-92 NSCLC = tested on: HOP-92 NSCLC
OVCAR-5 ovarian = tested on: OVCAR-5 ovarian
MALME-3M melanoma = tested on: MALME-3M melanoma
TK-10 renal = tested on: TK-10 renal
DMS 273 small cell lung = tested on: DMS 273 small cell lung
HL-60(TB) leukemia = tested on: HL-60(TB) leukemia
U251 CNS = tested on: U251 CNS
NCI-H522 lung = tested on: NCI-H522 lung
HOP-18 NSCLC = tested on: HOP-18 NSCLC
UACC-257 melanoma = tested on: UACC-257 melanoma

Measured: TGI

c1ccc(CCCC2Sc3cccc4cccc(c34)S2)cc1
not listed: HOP-18 NSCLC | UACC-257 melanoma
> 100 µM: all other assays above

CC1C(/C=C/c2ccoc2)ON2CCCC12 (configuration not stated)
not listed: XF 498 CNS | IGROV1 ovarian | KM12 colon | SK-MEL-5 melanoma | M14 melanoma | CCRF-CEM leukemia | OVCAR-3 ovarian | UACC-62 melanoma | RPMI-8226 leukemia | HOP-62 NSCLC | HCT-116 colon | DMS 114 small cell lung | HCT-15 colon | K-562 leukemia | A549 NSCLC | SK-OV-3 ovarian
> 100 µM: all other assays above
